The values that follow come from patent US10239849B2 (Merck Sharp & Dohme Corp., priority 2015, dated 2019).

Each structure is given as a SMILES string.

The target of assay [1] is T1, glutathione-S-transferase (GST) tagged LXRalpha LBD (ligand binding domain) (Homo sapiens, UniProt Q13133).
T1 construct: purchased Invitrogen pv4655
T1 sequence (Q13133 209-447 limits assumed): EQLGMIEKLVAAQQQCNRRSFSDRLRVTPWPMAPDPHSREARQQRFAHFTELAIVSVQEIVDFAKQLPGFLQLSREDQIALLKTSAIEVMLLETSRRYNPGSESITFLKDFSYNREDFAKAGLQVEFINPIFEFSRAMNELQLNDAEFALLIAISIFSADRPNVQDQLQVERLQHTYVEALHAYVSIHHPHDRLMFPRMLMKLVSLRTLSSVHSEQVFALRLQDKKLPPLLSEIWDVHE
The assay is described as follows: LanthaScreen TR-FRET Liver X Receptor Coactivator Assay, LXR alpha-LBD. In kind it is biochemical. The conditions noted are these: for Emax: efficacy in relation to reference dual agonist T1317, read-out: LXR alpha activity at max dose (%) (Emax); for EC50: potency (Inflection Point) of co-activator recruitment, TR-FRET, read-out: LXR alpha IP. A digest of the protocol: (§1)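 TR-FRET coactivator recruitment read-out: compounds first received either LBD, followed by a mix of terbium-labelled anti-GST antibody and fluorescein coactivator peptide. Signal measured by time-resolved FRET once plates had incubated at room temperature.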

Assay [2] has as its target T2, glutathione-S-transferase (GST) tagged LXRbeta LBD (ligand binding domain) (Homo sapiens, UniProt P55055).
T2 construct: purchased Invitrogen pv4658.pps
T2 sequence (P55055 222-460 limits assumed): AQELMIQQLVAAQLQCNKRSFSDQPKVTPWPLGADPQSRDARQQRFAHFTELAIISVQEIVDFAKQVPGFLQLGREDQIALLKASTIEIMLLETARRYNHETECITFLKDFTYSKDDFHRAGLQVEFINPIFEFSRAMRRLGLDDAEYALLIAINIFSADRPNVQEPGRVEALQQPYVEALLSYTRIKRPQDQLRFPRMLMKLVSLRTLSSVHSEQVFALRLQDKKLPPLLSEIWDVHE
The assay is described as follows: LanthaScreen TR-FRET Liver X Receptor Coactivator Assay, LXR beta-LBD. Format: biochemical. The conditions noted are these: for Emax: efficacy in relation to reference dual agonist T1317, read-out: LXR beta activity at max dose (%) (Emax); for EC50: potency (Inflection Point) of co-activator recruitment, TR-FRET, read-out: LXR beta IP. A digest of the protocol:
as §1
In general terms: In TR-FRET formats the signal depends on donor and acceptor labels being close together.

The term Emax denotes the maximal effect, on the per cent scale that the assay sets. Turning to `CC(C)(C)OC(=O)N1CCN(c2ncc(-c3ccc(C(=O)N4CCOCC4)c(Cl)c3)cc2C#N)CC1` [Example 5-14, tert-butyl 4-{5-[3-chloro-4-(morpholin-4-ylcarbonyl)phenyl]-3-cyanopyridin-2-yl}piperazine-1-carboxylate], the maximum response (Emax) in assay [1] was 38%; in assay [2], 63%. Further, the EC50 in assay [1] was 12.6 µM; in assay [2], 0.332 µM.
On to `CN(C)C(=O)c1ccc(-c2cnc(N3CCN(C(=O)OC(C)(C)C)CC3)c(CO)c2)cc1Cl` [Example 9-3, tert-butyl 4-{5-[3-chloro-4-(dimethylcarbamoyl)phenyl]-3-(hydroxymethyl)pyridin-2-yl}piperazine-1-carboxylate], for which, in assay [1], the maximal response (Emax) came out at 34% and the EC50 came to 30.1 µM. Also, in assay [2], the Emax came to 57% and the EC50 is 0.73 µM.
